Source: patent publication EP0609460A1, “PHARMACEUTICAL AGENT WITH A[…]” (KISLYAKOVA, Nonna Dmitrievna, priority 1992, dated 1994)

Experiments:
[1] = test system: DMBA-induced mammary gland cancer; details: cited from earlier work; for per cent of complete regression (disappearance of tumor) / per cent of partial decrease of tumors / tumors which did not regress at all / per cent of general regression of all tumors: after 30 days of administration; for per cent of general regression of all tumors: oil solutions, about 15 mg/kg
[2] = test system: induced mammary gland cancer; assay: Induced mammary gland cancer in rats, long-term growing tumors with lost androgen susceptibility (Table 1); assay type: in vivo, White random-bred rats
[3] = test system: hormone-susceptible malignant tumors in women; assay: Clinical use in volunteer patients; details: long-term (up to 2 months) administration in low doses
Protocol: The duration of the course - 2 months.
The daily dose (with the patient's weight about 70 kg) consisted of 3 g DL-valine in combination with 25 mg (0.025 g or 5 tablets) methyltestosterone. The daile dose was divided into 3 single ones (1 g DL-valine in warm milk enterally and 1 tablet of methyltestosterone sublingually 3 times daily - on an empty stomach and before meals; and 1 tablet of methyltestosterone without DL-valine sublingually 2 times in the middle of the day before meals). The patient strictly observed the diet with the excess of protein, limited amount of carbohydrates and complete exclusion of animal fat and phospholipids (fish hard-roe, egg yolk), using no more than 1-2 table spoonfuls of vegetable oil daily.

[4] = test system: hormone-susceptible DMBA-induced mammary gland cancer tumors; assay: DMBA-induced hormone-susceptible mammary gland cancer in female rats, daily oral treatment; assay type: in vivo
mammalian cancer cells = details: in vitro, cited from earlier work

| SMILES | per cent of complete regression (disappearance of tumor) [1] | per cent of partial decrease of tumors [1] | tumors which did not regress at all [1] | per cent of general regression of all tumors [1] | further results |
| --- | --- | --- | --- | --- | --- |
| CCC(=O)O[C@H]1CC[C@H]2[C@@H]3CC[C@H]4CC(=O)[C@H](C)C[C@]4(C)[C@H]3CC[C@]12C [2α-methyldihydrotestosterone propionate] | 50% | 20% | 30% | 70% | – |
| COc1cc(C=NNC(=O)c2ccncc2)ccc1O [phthivazid] | – | – | – | – | optimal dose of phthivazid ([2]; with DL-valine and methandrostenolone, found empirically): 45-50 mg/kg body weight |
| CCC(=O)O[C@H]1CC[C@H]2[C@@H]3CCC4=CC(=O)CC[C@]4(C)[C@H]3CC[C@]12C [testosterone propionate] | 10% | 30% | 60% | 40% | – |
| C[C@]12C=CC(=O)C=C1CC[C@@H]1[C@@H]2CC[C@@]2(C)[C@H]1CC[C@]2(C)O [methandrostenolone] | – | – | – | – | optimal dose of methandrostenolone in mixture with DL-valine ([2]; long-term growing tumors 10 cm³ or larger): 20-25 mg/kg body weight |
| C[C@]12CCC(=O)C=C1CC[C@@H]1[C@@H]2CC[C@@]2(C)[C@H]1CC[C@]2(C)O [methyltestosterone] | – | – | – | – | side effects [3]: weak manifestations of virilism; minimal effective dose ([4]; Rattus norvegicus, po, without DL-valine, read-out: dose from which methyltestosterone alone causes regression): ≥ 25 mg/kg; antiblastic effect alone, without DL-valine ([4]; nontherapeutic doses 5-10 mg/kg): cause no regression or even inhibition of the growth; better dose of methyltestosterone in combination with DL-valine ([4]; tumor sizes over 6.0 cm³ up to 8-10 cm³): 10 mg/kilo body weight; dose of methyltestosterone giving the optimal antiblastic effect in combination with DL-valine ([4]; tumors of 4.0 cm³ to 6.0 cm³): 5 mg per kilo body weight; experimental therapeutic dose ([1]; administered orally): 25-40 mg/kg per day |
| CC(C)C(N)C(=O)O (racemic) [DL-valine] | – | – | – | – | regression effect ([4]; DL-valine 275 mg/kg in the mixture): disappears completely; optimal dose of DL-valine ([4]; in the mixture): 550 mg/kg; damage of non-malignant cells (mammalian cancer cells): without any damage; cytotoxic effect on mammalian cancer cells (mammalian cancer cells; compared with other DL-amino acids): the strongest cytotoxic effect |
| C[C@@H]1C[C@@]2(C)[C@@H](CC[C@@H]3[C@@H]2CC[C@]2(C)[C@@H](O)CC[C@@H]32)CC1=O [2α -methyldihydrotestosterone] | 20% | 60% | 20% | 80% | – |
